Results from US11000033B2, “Ketone or oxime compound, and herbicide” (NISSAN CHEMICAL CORPORATION, priority 2014, dated 2021).

Tests used:
Type in all cases: in vivo
Setaria viridis [1] = test: Test Example 4: herbicidal effect by soil treatment (symbol G)
Summary of the method: (§1)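 Seeds were sown in sterilized diluvial soil, covered with about 1.5 cm of soil, and the soil surface was sprayed with a water-diluted emulsion of the compound at a predetermined rate. Plants grew in a greenhouse at 25° C. to 30° C.; effects were scored visually 3 weeks after application.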

wheat = test: Test Example 4: effect on crop by soil treatment (symbol e)
Summary of the method: (§2)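 Sterilized diluvial soil, spot sowing, ~1.5 cm soil cover; greenhouse 25–30° C.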

Amaranthus retroflexus [2] = test: Test Example 4: herbicidal effect by soil treatment (symbol N)
Summary of the method: as §1

Chenopodium album = test: Test Example 5: herbicidal effect by foliage application, plastic box (symbol O); settings: 320 g/ha, 3 weeks after application
Summary of the method: (§3)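 Herbicide, formulated as an emulsion and diluted in water, is sprayed onto the aerial parts of 14-day seedlings. These were grown at 25° C. to 30° C. in sterilized diluvial soil; effects are graded after 3 weeks.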

Scirpus juncoides = test: Test Example 1: herbicidal activity, application before weed generation in submerged conditions (symbol B); settings: application herbicide amount 320 g/ha
Summary of the method: (§4)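 Pre-emergence, paddy conditions: emulsifiable formulation diluted in water, dosed onto floodwater (4 cm depth) on sowing day. Alluvial soil; weeds sown mixed; rice transplanted at 2.5-leaf stage. Greenhouse 25–30 °C, 3 wk. Score 0–5 (5 = ≥90% kill, 0 = ≤5%).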

Setaria viridis [3] = test: Test Example 5: herbicidal effect by foliage application, plastic box (symbol G); settings: 320 g/ha, 3 weeks after application
Summary of the method: as §3

[4] = tested on: Echinochloa crus-galli var. crus-galli; test: Test Example 3: herbicidal effect by foliage application, Wagner pot (symbol H); settings: application herbicide amount 320 g/ha
Summary of the method: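 Foliar spray of water-diluted emulsion formulation at a predetermined herbicide amount onto 14-day-old plants in flooded alluvial soil (water depth 0.1–0.5 cm), greenhouse 25–30 °C; rice sown alongside. Scored 3 wk post-application on set criteria.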

beet = test: Test Example 4: effect on crop by soil treatment (symbol f)
Summary of the method: as §2

Avena fatua = test: Test Example 4: herbicidal effect by soil treatment (symbol I)
Summary of the method: as §1

[5] = tested on: Echinochloa crus-galli var. crus-galli; test: Test Example 5: herbicidal effect by foliage application, plastic box (symbol H); settings: 320 g/ha, 3 weeks after application
Summary of the method: as §3

Amaranthus retroflexus [6] = test: Test Example 5: herbicidal effect by foliage application, plastic box (symbol N); settings: 320 g/ha, 3 weeks after application
Summary of the method: as §3

Lolium multiflorum Lam. = test: Test Example 4: herbicidal effect by soil treatment (symbol K)
Summary of the method: as §1

Galium spurium = test: Test Example 5: herbicidal effect by foliage application, plastic box (symbol Q); settings: 320 g/ha, 3 weeks after application
Summary of the method: as §3

Monochoria vaginalis = test: Test Example 1: herbicidal activity, application before weed generation in submerged conditions (symbol C); settings: application herbicide amount 320 g/ha
Summary of the method: as §4

Abutilon theophrasti = test: Test Example 5: herbicidal effect by foliage application, plastic box (symbol M); settings: 320 g/ha, 3 weeks after application
Summary of the method: as §3

Apera spica-venti = test: Test Example 4: herbicidal effect by soil treatment (symbol L)
Summary of the method: as §1

soybean [7] = test: Test Example 5: effect on crop by foliage application, plastic box (symbol d); settings: 320 g/ha, 3 weeks after application
Summary of the method: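 Sterilized diluvial soil, plastic box (21 × 13 × 7 cm); spot sowing, ~1.5 cm soil cover; greenhouse 25–30° C.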

soybean [8] = test: Test Example 4: effect on crop by soil treatment (symbol d)
Summary of the method: as §2

[9] = application herbicide amount 320 g/ha

| Structure (SMILES) | O: Chenopodium album, herbicidal effect grade (Chenopodium album) | Herbicidal effect grade, B: Scirpus juncoides (Scirpus juncoides) | G: Setaria viridis, herbicidal effect grade (Setaria viridis [3]) | herbicidal effect on H (Echinochloa crus-galli var. crus-galli), grade 0-5 [4] | H: Echinochloa crus-galli var. crus-galli, herbicidal effect grade [5] | N: Amaranthus retroflexus, herbicidal effect grade (Amaranthus retroflexus [6]) | Q: Galium spurium, herbicidal effect grade (Galium spurium) | Herbicidal effect grade, C: Monochoria vaginalis (Monochoria vaginalis) | M: Abutilon theophrasti, herbicidal effect grade (Abutilon theophrasti) | d: soybean, effect on crop grade (soybean [7]) | G: Setaria viridis, herbicidal effect grade (Setaria viridis [1]; [9]) | e: wheat, effect on crop grade (wheat; [9]) | N: Amaranthus retroflexus, herbicidal effect grade (Amaranthus retroflexus [2]; [9]) | f: beet, effect on crop grade (beet; [9]) | I: Avena fatua, herbicidal effect grade (Avena fatua; [9]) | K: Lolium multiflorum Lam., herbicidal effect grade (Lolium multiflorum Lam.; [9]) | L: Apera spica-venti, herbicidal effect grade (Apera spica-venti; [9]) | d: soybean, effect on crop grade (soybean [8]; [9]) | other results |
| --- | --- | --- | --- | --- | --- | --- | --- | --- | --- | --- | --- | --- | --- | --- | --- | --- | --- | --- | --- |
| CON=C(C)CC1CC(OC(=O)c2ccccc2)=C(c2c(C)cc(C)cc2C)C1=O (stereo not drawn) [1-010] | 4 (Herbicidal ratio of 70% or higher and lower than 90%) | 5 (Herbicidal ratio of 90% or more (almost completely withered)) | 5 (Herbicidal ratio of 90% or more (almost completely withered)) | 5 (Herbicidal ratio of 90% or more (almost completely withered)) | 5 (Herbicidal ratio of 90% or more (almost completely withered)) | 4 (Herbicidal ratio of 70% or higher and lower than 90%) | 4 (Herbicidal ratio of 70% or higher and lower than 90%) | 2 (Herbicidal ratio of 20% or higher and lower than 40%) | 4 (Herbicidal ratio of 70% or higher and lower than 90%) | 4 (Herbicidal ratio of 70% or higher and lower than 90%) |  |  |  |  |  |  |  |  | G (Setaria viridis) herbicidal effect grade (Setaria viridis [1]; [9]): 3 (Herbicidal ratio of 40% or higher and lower than 70%); e (wheat) effect on crop grade (wheat; [9]): 4 (Herbicidal ratio of 70% or higher and lower than 90%); N (Amaranthus retroflexus) herbicidal effect grade (Amaranthus retroflexus [2]; [9]): 5 (Herbicidal ratio of 90% or more (almost completely withered)); f (beet) effect on crop grade (beet; [9]): 4 (Herbicidal ratio of 70% or higher and lower than 90%); I (Avena fatua) herbicidal effect grade (Avena fatua; [9]): 5 (Herbicidal ratio of 90% or more (almost completely withered)); K (Lolium multiflorum Lam.) herbicidal effect grade (Lolium multiflorum Lam.; [9]): 5 (Herbicidal ratio of 90% or more (almost completely withered)); L (Apera spica-venti) herbicidal effect grade (Apera spica-venti; [9]): 5 (Herbicidal ratio of 90% or more (almost completely withered)); d (soybean) effect on crop grade (soybean [8]; [9]): 4 (Herbicidal ratio of 70% or higher and lower than 90%) |
| CON=C(C)CC1CC(O)=C(c2c(C)cc(-c3ccc(Cl)nc3)cc2C)C1=O (mixture of isomers) [6-035] | 3 (Herbicidal ratio of 40% or higher and lower than 70%) | 4 (Herbicidal ratio of 70% or higher and lower than 90%) | 5 (Herbicidal ratio of 90% or more (almost completely withered)) | 5 (Herbicidal ratio of 90% or more (almost completely withered)) | 5 (Herbicidal ratio of 90% or more (almost completely withered)) | 5 (Herbicidal ratio of 90% or more (almost completely withered)) | 4 (Herbicidal ratio of 70% or higher and lower than 90%) | 1 (Herbicidal ratio of 5% or higher and lower than 20%) | 4 (Herbicidal ratio of 70% or higher and lower than 90%) | 2 (Herbicidal ratio of 20% or higher and lower than 40%) | 5 (Herbicidal ratio of 90% or more (almost completely withered)) | 0 (Herbicidal ratio of 5% or lower (almost no effect)) | 0 (Herbicidal ratio of 5% or lower (almost no effect)) | 0 (Herbicidal ratio of 5% or lower (almost no effect)) | 3 (Herbicidal ratio of 40% or higher and lower than 70%) | 5 (Herbicidal ratio of 90% or more (almost completely withered)) | 5 (Herbicidal ratio of 90% or more (almost completely withered)) | 0 (Herbicidal ratio of 5% or lower (almost no effect)) |  |
| CON=C(C)CC1CC(O)=C(c2c(C)cc(C#CC3CC3)cc2C)C1=O (mixture of isomers) [6-010] | 3 (Herbicidal ratio of 40% or higher and lower than 70%) | 4 (Herbicidal ratio of 70% or higher and lower than 90%) | 5 (Herbicidal ratio of 90% or more (almost completely withered)) | 5 (Herbicidal ratio of 90% or more (almost completely withered)) | 5 (Herbicidal ratio of 90% or more (almost completely withered)) | 0 (Herbicidal ratio of 5% or lower (almost no effect)) | 0 (Herbicidal ratio of 5% or lower (almost no effect)) | 1 (Herbicidal ratio of 5% or higher and lower than 20%) | 0 (Herbicidal ratio of 5% or lower (almost no effect)) | 3 (Herbicidal ratio of 40% or higher and lower than 70%) | 5 (Herbicidal ratio of 90% or more (almost completely withered)) | 4 (Herbicidal ratio of 70% or higher and lower than 90%) | 1 (Herbicidal ratio of 5% or higher and lower than 20%) | 0 (Herbicidal ratio of 5% or lower (almost no effect)) | 3 (Herbicidal ratio of 40% or higher and lower than 70%) | 5 (Herbicidal ratio of 90% or more (almost completely withered)) | 5 (Herbicidal ratio of 90% or more (almost completely withered)) | 0 (Herbicidal ratio of 5% or lower (almost no effect)) |  |
| CC(=O)C(C(C)=O)C1CC(O)=C(c2c(C)cc(C)cc2C)C1=O (stereo not drawn) [2-002] | 3 (Herbicidal ratio of 40% or higher and lower than 70%) | 0 (Herbicidal ratio of 5% or lower (almost no effect)) | 4 (Herbicidal ratio of 70% or higher and lower than 90%) | 0 (Herbicidal ratio of 5% or lower (almost no effect)) | 3 (Herbicidal ratio of 40% or higher and lower than 70%) | 0 (Herbicidal ratio of 5% or lower (almost no effect)) | 2 (Herbicidal ratio of 20% or higher and lower than 40%) | 0 (Herbicidal ratio of 5% or lower (almost no effect)) | 0 (Herbicidal ratio of 5% or lower (almost no effect)) | 0 (Herbicidal ratio of 5% or lower (almost no effect)) |  |  |  |  |  |  |  |  | G: Setaria viridis, herbicidal effect grade (Setaria viridis [1]; 320 g/ha): 0 (Herbicidal ratio of 5% or lower (almost no effect)); e: wheat, effect grade on crop (wheat; 320 g/ha): 0 (Herbicidal ratio of 5% or lower (almost no effect)); N: Amaranthus retroflexus, herbicidal effect grade (Amaranthus retroflexus [2]; 320 g/ha): 0 (Herbicidal ratio of 5% or lower (almost no effect)); f: beet, effect grade on crop (beet; 320 g/ha): 0 (Herbicidal ratio of 5% or lower (almost no effect)); I: Avena fatua, herbicidal effect grade (Avena fatua; 320 g/ha): 0 (Herbicidal ratio of 5% or lower (almost no effect)); K: Lolium multiflorum Lam., herbicidal effect grade (Lolium multiflorum Lam.; 320 g/ha): 0 (Herbicidal ratio of 5% or lower (almost no effect)); L: Apera spica-venti, herbicidal effect grade (Apera spica-venti; 320 g/ha): 0 (Herbicidal ratio of 5% or lower (almost no effect)); d: soybean, effect grade on crop (soybean [8]; 320 g/ha): 0 (Herbicidal ratio of 5% or lower (almost no effect)) |
